Peptide text beside a SMILES is read from it.
Assays:
in vitro = assay type: cell-based
Protocol: The cytotoxicity of the peptides to HELA cells (Acc57) and COS-7 cells (CRL-1651) was determined using the MTT reduction assay (T. Mossman, J. Immunol. Meth. 1983, 65, 55-63; M. V. Berridge, A. S. Tan, Arch. Biochem. Biophys. 1993, 303, 474-482). Briefly, the method was as follows: 4000 HELA cells/well and 3400 COS-7 cells/well were seeded and grown in 96-well microtiter plates for 24 h at 37° C. at 5% CO2. Thereafter, time zero (Tz) was determined by MTT reduction (see below). The supernatant of the remaining wells was discarded, and fresh medium and compounds in serial dilutions (12.5, 25 and 50 μg/mL, triplicates) were pipetted into the wells. After incubation of the cells for 48 h at 37° C. at 5% CO2 the supernatant was discarded again and 100 μL MTT reagent (0.5 mg/mL in RPMI1640 and DMEM, respectively)/well was added. Following incubation at 37° C. for 2-4 h the media were aspirated and the cells were spiked (100 μL isopropanol/well). The absorbance of the solubilized formazan was measured at 595 nm (OD595peptide). For each concentration averages were calculated from triplicates. The percentage of growth was calculated as follows: (OD595peptide-OD595Tz-OD595Empty well)/(OD595Tz-OD595Empty well)×100%. The GI50 (Growth Inhibition) concentrations were calculated for each peptide by using a trend line function for the concentrations (50, 25, 12.5 and 0 μg/mL), the corresponding percentages and the value 50, (=TREND (C50:C0%50:%0,50).

Shigella boydii DSM 7532 = details: Mueller-Hinton II broth + 0.02% BSA, 18-20 hours at 37° C.
Protocol: […] colony forming units (CFU)/mL. Aliquots (50 μl) of inoculate were added to 50 μl of MH broth+0.02% BSA containing the peptide in serial two-fold dilutions. The following microorganisms were used to determine antibiotic selectivity of the peptides: Bacillus subtilis DSM 10 and Shigella boydii DSM 7532.

[1] = test system: human red blood cells (hRBC); assay type: cell-based; details: red cells of human, 1 h
Protocol: The peptides were tested for their hemolytic activity against human red blood cells (hRBC). Fresh hRBC were washed three times with phosphate buffered saline (PBS) and centrifuged for 10 min at 2000×g. Compounds (100 μg/mL) were incubated with 20% hRBC (v/v) for 1 h at 37° C. and shaking at 300 rpm. The final erythrocyte concentration was approximately 0.9×10^9 cells/mL. A value of 0% and 100% cell lyses, respectively, was determined by incubation of hRBC in the presence of PBS containing 0.001% acetic acid and 2.5% Triton X-100 in H2O, respectively. The samples were centrifuged, the supernatants were 8-fold diluted in PBS buffer and the optical densities (OD) were measured at 540 nm. The 100% lyses value (OD540H2O) gave an OD50 of approximately 0.5-1.0.
Percent hemolysis was calculated as follows: (OD540peptide/OD540H2O)×100%.

SMILES	GI50 at 48 h (in vitro; African green monkey)	GI50 at 48 h (in vitro; human)	Shigella boydii DSM 7532 MIC (Shigella boydii DSM 7532)	Hemolysis at 100 μg/mL [1]
CC[C@H](C)[C@@H]1NC(=O)[C@H](CCCNC(=N)N)NC(=O)[C@H](Cc2c[nH]c3ccccc23)NC(=O)[C@@H]2CCCN2C(=O)[C@H]2CCCN2C(=O)[C@H](CCCNC(=N)N)NC(=O)[C@H](CCCNC(=N)N)NC(=O)[C@H](CC(C)C)NC(=O)[C@H](CCN)NC(=O)[C@H](CCCCN)NC(=O)[C@H](CC(N)=O)NC(=O)[C@@H](CCCNC(=N)N)NC(=O)[C@H]([C@@H](C)CC)NC(=O)[C@H](CCCNC(=N)N)NC1=O [Example 1] (HELM PEPTIDE1{W.R.I.R.I.[dR].N.K.[Dab].L.R.R.[dP].P}$PEPTIDE1,PEPTIDE1,1:R1-14:R2$$$V2.0)	> 50 µg/mL	> 50 µg/mL	8 µg/mL	0.0%
CC[C@H](C)[C@@H]1NC(=O)[C@H](CCCNC(=N)N)NC(=O)[C@H](Cc2c[nH]c3ccccc23)NC(=O)[C@@H]2CCCN2C(=O)[C@H]2CCCN2C(=O)[C@H](CCC(N)=O)NC(=O)[C@H](CCCNC(=N)N)NC(=O)[C@H](CC(C)C)NC(=O)[C@H](CCCNC(=N)N)NC(=O)[C@H](CCCCN)NC(=O)[C@H](CC(N)=O)NC(=O)[C@@H](CCCNC(=N)N)NC(=O)[C@H]([C@@H](C)CC)NC(=O)[C@H](CCCNC(=N)N)NC1=O [Example 2] (HELM PEPTIDE1{W.R.I.R.I.[dR].N.K.R.L.R.Q.[dP].P}$PEPTIDE1,PEPTIDE1,1:R1-14:R2$$$V2.0)	> 50 µg/mL	> 50 µg/mL	4 µg/mL	0.0%
CC[C@H](C)[C@@H]1NC(=O)[C@H](CCCNC(=N)N)NC(=O)[C@H](Cc2c[nH]c3ccccc23)NC(=O)[C@@H]2CCCN2C(=O)[C@H]2CCCN2C(=O)[C@H](C)NC(=O)[C@H](CCCNC(=N)N)NC(=O)[C@H](CC(N)=O)NC(=O)[C@H](CCCNC(=N)N)NC(=O)[C@H](CCCCN)NC(=O)[C@H](CC(N)=O)NC(=O)[C@@H](CCCNC(=N)N)NC(=O)[C@H]([C@@H](C)CC)NC(=O)[C@H](CCCNC(=N)N)NC1=O [Example 3] (HELM PEPTIDE1{W.R.I.R.I.[dR].N.K.R.N.R.A.[dP].P}$PEPTIDE1,PEPTIDE1,1:R1-14:R2$$$V2.0)	> 50 µg/mL	> 50 µg/mL	16 µg/mL	0.1%
CC[C@H](C)[C@@H]1NC(=O)[C@H](CCCNC(=N)N)NC(=O)[C@H](Cc2c[nH]c3ccccc23)NC(=O)[C@@H]2CCCN2C(=O)[C@H]2CCCN2C(=O)[C@H](C)NC(=O)[C@H](CCC(N)=O)NC(=O)[C@H](CC2CCCCC2)NC(=O)[C@H](CCCNC(=N)N)NC(=O)[C@H](CCC(N)=O)NC(=O)[C@H](CC(N)=O)NC(=O)[C@@H](CCCNC(=N)N)NC(=O)[C@H]([C@@H](C)CC)NC(=O)[C@H](CCCNC(=N)N)NC1=O [Example 4] (HELM PEPTIDE1{W.R.I.R.I.[dR].N.Q.R.[Cha].Q.A.[dP].P}$PEPTIDE1,PEPTIDE1,1:R1-14:R2$$$V2.0)	> 50 µg/mL	> 50 µg/mL	>16 µg/mL	0.8%
CC[C@H](C)[C@@H]1NC(=O)[C@H](CCN)NC(=O)[C@H](Cc2c[nH]c3ccccc23)NC(=O)[C@@H]2CCCN2C(=O)[C@H]2CCCN2C(=O)[C@H](C)NC(=O)[C@H](CCC(N)=O)NC(=O)[C@H](CC(C)C)NC(=O)[C@H](CCCNC(=N)N)NC(=O)[C@H](CCC(N)=O)NC(=O)[C@H](CC(N)=O)NC(=O)[C@@H](CCCNC(=N)N)NC(=O)[C@H]([C@@H](C)CC)NC(=O)[C@H](CCCNC(=N)N)NC1=O [Example 5] (HELM PEPTIDE1{W.[Dab].I.R.I.[dR].N.Q.R.L.Q.A.[dP].P}$PEPTIDE1,PEPTIDE1,1:R1-14:R2$$$V2.0)	> 50 µg/mL	> 50 µg/mL	16 µg/mL	0.0%
CC[C@H](C)[C@@H]1NC(=O)[C@H](CCCN)NC(=O)[C@H](Cc2c[nH]c3ccccc23)NC(=O)[C@@H]2CCCN2C(=O)[C@H]2CCCN2C(=O)[C@H](C)NC(=O)[C@H](CCC(N)=O)NC(=O)[C@H](CC(C)C)NC(=O)[C@H](CCCNC(=N)N)NC(=O)[C@H](CCC(N)=O)NC(=O)[C@H](CC(N)=O)NC(=O)[C@@H](CCCNC(=N)N)NC(=O)[C@H]([C@@H](C)CC)NC(=O)[C@H](CCCNC(=N)N)NC1=O [Example 6] (HELM PEPTIDE1{W.[Orn].I.R.I.[dR].N.Q.R.L.Q.A.[dP].P}$PEPTIDE1,PEPTIDE1,1:R1-14:R2$$$V2.0)	> 50 µg/mL	> 50 µg/mL	>16 µg/mL	0.0%
CC[C@H](C)[C@@H]1NC(=O)[C@H](CCCNC(=N)N)NC(=O)[C@H](Cc2c[nH]c3ccccc23)NC(=O)[C@@H]2CCCN2C(=O)[C@H]2CCCN2C(=O)[C@H](C)NC(=O)[C@H](CCC(N)=O)NC(=O)[C@H](CC(C)C)NC(=O)[C@H](CCCNC(=N)N)NC(=O)[C@H](CCC(N)=O)NC(=O)[C@H](CC(N)=O)NC(=O)[C@@H](CCCNC(=N)N)NC(=O)[C@H]([C@@H](C)CC)NC(=O)[C@H](CCN)NC1=O [Example 7] (HELM PEPTIDE1{W.R.I.[Dab].I.[dR].N.Q.R.L.Q.A.[dP].P}$PEPTIDE1,PEPTIDE1,1:R1-14:R2$$$V2.0)	> 50 µg/mL	> 50 µg/mL	>16 µg/mL	0.0%
CC[C@H](C)[C@@H]1NC(=O)[C@H](CCCNC(=N)N)NC(=O)[C@H](Cc2c[nH]c3ccccc23)NC(=O)[C@@H]2CCCN2C(=O)[C@H]2CCCN2C(=O)[C@H](C)NC(=O)[C@H](CCC(N)=O)NC(=O)[C@H](CC(C)C)NC(=O)[C@H](CCCNC(=N)N)NC(=O)[C@H](CCC(N)=O)NC(=O)[C@H](CC(N)=O)NC(=O)[C@@H](CCCNC(=N)N)NC(=O)[C@H]([C@@H](C)CC)NC(=O)[C@H](CCCN)NC1=O [Example 8] (HELM PEPTIDE1{W.R.I.[Orn].I.[dR].N.Q.R.L.Q.A.[dP].P}$PEPTIDE1,PEPTIDE1,1:R1-14:R2$$$V2.0)	> 50 µg/mL	> 50 µg/mL	16 µg/mL	0.0%
CC[C@H](C)[C@@H]1NC(=O)[C@H](CCCNC(=N)N)NC(=O)[C@H]([C@@H](C)CC)NC(=O)[C@H](CCCNC(=N)N)NC(=O)[C@H](Cc2c[nH]c3ccccc23)NC(=O)[C@@H]2CCCN2C(=O)[C@H]2CCCN2C(=O)[C@H](C)NC(=O)[C@H](CCC(N)=O)NC(=O)[C@H](CC(C)C)NC(=O)[C@H](CCCNC(=N)N)NC(=O)[C@H](CCC(N)=O)NC(=O)[C@H](CC(N)=O)NC(=O)[C@H](CCCN)NC1=O [Example 9] (HELM PEPTIDE1{W.R.I.R.I.[Orn].N.Q.R.L.Q.A.[dP].P}$PEPTIDE1,PEPTIDE1,1:R1-14:R2$$$V2.0)	> 50 µg/mL	> 50 µg/mL	>16 µg/mL	0.0%
CC[C@H](C)[C@@H]1NC(=O)[C@H](CCCNC(=N)N)NC(=O)[C@H]([C@@H](C)CC)NC(=O)[C@H](CCCNC(=N)N)NC(=O)[C@H](Cc2c[nH]c3ccccc23)NC(=O)[C@@H]2CCCN2C(=O)[C@H]2CCCN2C(=O)[C@H](C)NC(=O)[C@H](CCC(N)=O)NC(=O)[C@H](CC(C)C)NC(=O)[C@H](CCCNC(=N)N)NC(=O)[C@H](CCC(N)=O)NC(=O)[C@H](CC(N)=O)NC(=O)[C@H](CCN)NC1=O [Example 10] (HELM PEPTIDE1{W.R.I.R.I.[Dab].N.Q.R.L.Q.A.[dP].P}$PEPTIDE1,PEPTIDE1,1:R1-14:R2$$$V2.0)	> 50 µg/mL	> 50 µg/mL	>16 µg/mL	0.4%
CC[C@H](C)[C@@H]1NC(=O)[C@H](CCCNC(=N)N)NC(=O)[C@H](Cc2c[nH]c3ccccc23)NC(=O)[C@@H]2CCCN2C(=O)[C@H]2CCCN2C(=O)[C@H](C)NC(=O)[C@H](CCC(N)=O)NC(=O)[C@H](CC(C)C)NC(=O)[C@H](CCCNC(=N)N)NC(=O)[C@H](CCC(N)=O)NC(=O)[C@H](CCC(N)=O)NC(=O)[C@@H](CCCNC(=N)N)NC(=O)[C@H]([C@@H](C)CC)NC(=O)[C@H](CCCNC(=N)N)NC1=O [Example 11] (HELM PEPTIDE1{W.R.I.R.I.[dR].Q.Q.R.L.Q.A.[dP].P}$PEPTIDE1,PEPTIDE1,1:R1-14:R2$$$V2.0)	> 50 µg/mL	> 50 µg/mL	>16 µg/mL	0.0%

From patent US8895499B2, “β-hairpin peptidomimetics” (Polyphor AG, priority 2010, dated 2014)
